Values of other authors as cited in EP4197526A1, “HYDROGEL FORMULATION COMPRISING ZEBULARINE AND RETIONIC ACID” (Uniwersytet Gdanski, priority 2021, dated 2023).
“And” between values parts separate entries of the source, which are not always exact repeats. Equal values may be shown once.

Conditions: literature data

solubility in water | Structure (SMILES)
up to 50 mg/ml | O=c1ncccn1[C@@H]1O[C@H](CO)[C@@H](O)[C@H]1O [zebularine]
0.000063 mg/ml and 0.21 microM | CC1=C(/C=C/C(C)=C/C=C/C(C)=C/C(=O)O)C(C)(C)CCC1 [retinoic acid]
